The results in this text go back to patent publication US10336766B2, “Anticancer drug candidates” (THE SCRIPPS RESEARCH INSTITUTE, priority 2015, dated 2019).

Format in all cases: cell-based, human
The subject of data set [1] is central nervous system cell line SF-295. The data set is described as follows: In vitro cytotoxic activity, CELLTITER 96 AQueous One Solution (MTS) assay, SF-295. As to conditions: 72 h treatment, mean ± SD of 3 replicates, read-out: IC50 cytotoxicity, SF-295. On the procedure:
(§1) The in vitro cytotoxic activity (IC50, half maximal inhibitory concentration) of the tiancimycins was tested against selected human cancer cell lines, such as breast cancer cells MDA-MB-468, melanoma cell M14 and SK-MEL-5, non-small cell lung cancer cell NCI-H226, central nervous system cell lines SF-295 and SF-539, and the known enediyne UCM was used as a comparison. Suspended cultures of cells were diluted to a concentration of 5×10^4 cells mL^−1 in RPMI 1640 medium supplemented with 10% fetal bovine serum, 100 μgmL^−1 streptomycin, and 100 UmL^−1 penicillin. The suspended cultures were dispensed into 96-well microtiter plates (100 μL per well) and the plates were incubated for 24 hours at 37° C. in an atmosphere of 5% CO2, 95% air, and 100% humidity. After incubation, original medium was removed and 100 μL of fresh medium was added, followed by adding serial dilutions of the tiancimycins (A, B, and C, 1 μl) and UCM (1 μl) in DMSO. The concentration of the tested compounds was ranged from 0 to 100 nM. Plates were incubated under the above conditions for 72 hours. After incubation, 20 μl CELLTITER 96® AQueous One Solution Reagent (Promega Corp, Madison, Wis., USA) was added to the plates and incubated at 37° C. in a humidified, 5% CO2 atmosphere for 30 to 60 min. The absorbance at 490 nm was recorded using an ELISA plate reader. Each point represents the mean±SD of 3 replicates. The IC50 was determined by computerized curve fitting.
(§2) Antitumor activities were assessed using CELLTITER 96® Aqueous One Solution Proliferation Assay (MTS) (Promega Corp.). Cells were plated in 96-well plate at 5000 cells/well and allowed to adhere overnight at 37° C. in a humidified atmosphere of 5% CO2. Medium was then removed and replaced by fresh culture medium containing different concentrations of different drugs. The cells were treated for 72 h before the assay was developed. All assay values were measured in triplicate.

For data set [2], the system named is non-small cell lung cancer cell NCI-H226. Nature of the data set: In vitro cytotoxic activity, CELLTITER 96 AQueous One Solution (MTS) assay, NCI-H226. Conditions: 72 h treatment, mean ± SD of 3 replicates, read-out: IC50 cytotoxicity, NCI-H226. On the procedure:
as §1, §2

The test system of the next data set is melanoma cell M14. The data set is described as follows: In vitro cytotoxic activity, CELLTITER 96 AQueous One Solution (MTS) assay, M14. As to conditions: 72 h treatment, mean ± SD of 3 replicates, read-out: IC50 cytotoxicity, M14. As to the method: as §1, §2
The subject of data set [3] is central nervous system cell line SF-539. The data set is described as follows: In vitro cytotoxic activity, CELLTITER 96 AQueous One Solution (MTS) assay, SF-539. As to conditions: 72 h treatment, mean ± SD of 3 replicates, read-out: IC50 cytotoxicity, SF-539. On the procedure:
as §1, §2

A further data set deals with melanoma cell SK-MEL-5. The data set is described as follows: In vitro cytotoxic activity, CELLTITER 96 AQueous One Solution (MTS) assay, SK-MEL-5. As to conditions: 72 h treatment, mean ± SD of 3 replicates, read-out: IC50 cytotoxicity, SK-MEL-5. As to the method:
as §1, §2

Data set [4] has as its system breast cancer cells MDA-MB-468. Nature of the data set: In vitro cytotoxic activity, CELLTITER 96 AQueous One Solution (MTS) assay, MDA-MB-468. As to conditions: 72 h treatment, mean ± SD of 3 replicates, read-out: IC50 cytotoxicity, MDA-MB-468. On the procedure:
as §1, §2

Like-named read-outs stand apart in the source and are kept apart here.

In the case of `CC(O)[C@@]12O[C@]13c1cc(O)c4c(c1N[C@H]2C#C/C=C\C#C[C@H]3O)C(=O)c1ccccc1C4=O` (stereo partly drawn) [UCM, uncialamycin, reference compound], the half-maximal inhibitory concentration (IC50) is 0.51 ± 0.05 nM in data set [1]; 4.1 ± 0.2 nM in data set [2]; 0.47 ± 0.07 nM in the data set on melanoma cell M14; 0.67 ± 0.03 nM in data set [3]; 1.7 ± 0.1 nM with melanoma cell SK-MEL-5; 0.22 ± 0.03 nM in data set [4].

As for `COc1ccc2c(c1O)C(=O)c1c3c(cc(O)c1C2=O)C12O[C@@]1([C@@H](C)O)[C@H](C#C/C=C\C#C[C@H]2O)N3` [TNM A, tiancimycin A], the 50% inhibitory concentration (IC50) came to 0.14 ± 0.01 nM in data set [1] (Homo sapiens); 2.3 ± 0.1 nM in data set [2] (Homo sapiens); 0.14 ± 0.01 nM in the data set with melanoma cell M14 (Homo sapiens); 0.3 ± 0.08 nM in data set [3] (Homo sapiens); 0.19 ± 0.01 nM in the data set with melanoma cell SK-MEL-5 (Homo sapiens); 0.1 ± 0.01 nM in data set [4] (Homo sapiens).

Regarding `COC(=O)/C=C(\C)[C@@]12OC13c1cc(O)c4c(c1N[C@H]2C#C/C=C\C#C[C@H]3O)C(=O)c1ccccc1C4=O` [TNM B, tiancimycin B], the IC50 in data set [1] (Homo sapiens) worked out at 0.26 ± 0.02 nM; in data set [2] (Homo sapiens), 2.8 ± 0.1 nM; in the data set with melanoma cell M14 (Homo sapiens) it was 0.24 ± 0.01 nM; in data set [3] (Homo sapiens) it was 0.23 ± 0.05 nM; in the data set with melanoma cell SK-MEL-5 (Homo sapiens) it was 0.19 ± 0.04 nM; in data set [4] (Homo sapiens), 0.1 ± 0.01 nM.

For `COC(=O)C(O)C(C)(O)[C@@]12OC13c1cc(O)c4c(c1N[C@H]2C#C/C=C\C#C[C@H]3O)C(=O)c1c(ccc(O)c1O)C4=O` (stereo partly drawn) [TNM C, tiancimycin C], the IC50 in data set [1] (Homo sapiens) was found to be 0.28 ± 0.02 nM; in data set [2] (Homo sapiens) it was 3.3 ± 0.3 nM; in the data set with melanoma cell M14 (Homo sapiens) it was 0.25 ± 0.01 nM; in data set [3] (Homo sapiens) it was 0.3 ± 0.05 nM; in the data set on melanoma cell SK-MEL-5 (Homo sapiens), 0.14 ± 0.02 nM; in data set [4] (Homo sapiens), 0.07 ± 0.01 nM.
